Non-standard residues stand in square brackets, D forms with d. Residues, ends and D or L forms follow the SMILES beside them. *: point of attachment. Boc = CC(C)(C)OC(=O)*
Test system: gastric acid secretion induced by the administration of pentagastrin
Experiment: Inhibition of pentagastrin-induced gastric acid secretion in anesthetized rats with perfused stomach (modified Ghosh and Schild)
Format: in vivo
Parameters: key to rating in assay: antagonism of the secretory response induced by pentagastrin: A test compound is considered active if the standard pentagastrin response is blocked to the extent of at least 50%
Settings: urethane-anesthetized male Charles River rats, gastric effluent pH, pentagastrin 0.1 mcg./rat intravenously
Description: The compounds of the present invention are useful in consequence of their valuable pharmacological properties. They are, for example, gastric anti-secretory agents as evidenced by their ability to inhibit the gastric acid secretion induced by the administration of pentagastrin.
The assay utilized for detection of that property is a modification of the procedure described by Ghosh and Schild, J. Physiol., Lond., 128:35-36P (1955); Br. J. Pharmacol. Chemother., […]:54-61 (1958); and by Smith et al., Br. J. Pharmacol., 38:206-213 (1970). The details of that assay are as follows:
A group of male Charles River rats weighing 300-400 g. are anesthetized by the intramuscular administration of urethane at a dose of 1.5 g./kg. The trachea is exposed and cannulated and a polyethylene tube is passed through the esophagus into the cardiac junction of the stomach and is ligated in place in the neck, excluding the vagal nerves. The external jugular vein is exposed and cannulated to facilitate intravenous administration. The femoral artery is exposed and cannulated for recording of blood pressure. The abdomen is opened. […] The test compounds are evaluated for their ability to antagonize the secretory response induced by the administration of pentagastrin. […]

Structure (SMILES)	inhibition of gastric acid secretion induced by pentagastrin (result in words)	rating in assay: antagonism of the secretory response induced by pentagastrin
CSCC[C@H](NC(=O)OC(C)(C)C)C(=O)N[C@@H](CC(=O)O)C(=O)N[C@H](C)C(N)=O [N-t-butoxycarbonyl-L-methionyl-L-aspartyl-D-alanine amide] (Boc-Met-Asp-[dA]-NH2)	particularly active	
CSCC[C@H](NC(=O)[C@H](Cc1c[nH]c2ccccc12)NC(=O)OC(C)(C)C)C(=O)N[C@@H](CC(=O)O)C(=O)N[C@H](C)C(N)=O [N-t-butoxycarbonyl-L-tryptophanyl-L-methionyl-L-aspartyl-D-alanine amide] (Boc-WMD[dA]-NH2)		active

From patent publication US4012367A, “Anti-ulcer polypeptides containing L-aspartic acid and intermediates thereto” (G. D. Searle & Co., priority 1976, dated 1977)
